# Legend:
# 5-HT1A receptor = target: T1, 5-HT1A receptor (Homo sapiens, UniProt P08908); experiment: cAMP-Glo luminescence assay in +5-HT1A cells (CHO-K1/5-HT1A/Gα15) with forskolin; format: cell-based; details: +5HT1A cell cultures, fixed (4 μM) forskolin, n=3; for luminescence (cAMP) trend with decreasing ligand dosage, 5-HT1A modulation: FIGS. 11J, 11K; for % cAMP levels with decreasing ligand dosage, 5-HT1A activity: FIGS. 11L, 11M
# T1 construct: host or cells: CHO-K1 (stably expressing 5-HT1A and Gα15)
# T1 sequence (P08908 1-422): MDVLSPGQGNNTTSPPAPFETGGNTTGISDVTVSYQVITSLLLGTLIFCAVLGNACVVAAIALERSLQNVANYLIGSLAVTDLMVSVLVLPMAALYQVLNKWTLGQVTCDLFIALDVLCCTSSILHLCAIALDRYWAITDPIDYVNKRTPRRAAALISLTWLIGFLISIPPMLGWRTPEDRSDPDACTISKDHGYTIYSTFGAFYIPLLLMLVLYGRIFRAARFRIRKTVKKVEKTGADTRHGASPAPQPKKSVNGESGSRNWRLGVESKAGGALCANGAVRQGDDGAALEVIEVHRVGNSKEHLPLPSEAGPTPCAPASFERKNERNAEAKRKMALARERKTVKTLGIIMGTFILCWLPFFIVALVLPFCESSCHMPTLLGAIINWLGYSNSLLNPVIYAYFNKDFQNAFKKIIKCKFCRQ
# Text: CHO-K1/Gα15 (GenScript, M00257) (−5-HT1A) and CHO-K1/5-HT1A/Gα15 (GenScript, M00330) (+5-HT1A) cells lines were used. Briefly, CHO-K1/Gα15 is a control cell line that constitutively expresses Gα15 which is a promiscuous Gq protein. This control cell line lacks any transgene encoding 5-HT1A receptors, but still responds to forskolin; thus, cAMP response to forskolin should be the same regardless of whether or not 5-HT1A agonists are present. Conversely, CHO-K1/5-HT1A/Gα15 cells stably express 5-HT1A receptor in the CHO-K1 host background. […] In +5-HT1A cells, Gα15 may be recruited in place of Gαi/o, which could theoretically dampen cAMP response (Rojas and Fiedler 2016, Front Cell Neurosci 10: 272). […] In contrast, tryptophan is not known to activate, or modulate in any way, 5-HT1A receptors, and was thus used as a negative control. Cells were maintained in complete growth media as recommended by supplier (GenScript) which is constituted as follows: Ham's F12 Nutrient mix (HAM's F12, GIBCO #11765-047) with 10% fetal bovine serum (FBS) (Thermo Scientific #12483020), 200 μg/ml zeocin (Thermo Scientific #R25005) and/or 100 μg/ml hygromycin (Thermo Scientific #10687010). The cells were cultured in a humidified incubator with 37° C. and 5% CO2. Cells maintenance was carried out as recommended by the cell supplier. Briefly, vials with cells were removed from the liquid nitrogen and thawed quickly in 37° C. water bath. Just before the cells were completely thawed the vial's outside was decontaminated by 70% ethanol spray. The cell suspension was then retrieved from the vial and added to warm (37° C.) complete growth media, and centrifuged at 1,000 rpm for 5 minutes. The supernatant was discarded, and the cell pellet was then resuspended in another 10 ml of complete growth media, and added to the 10 cm cell culture dish (Greiner Bio-One #664160). The media was changed every third day until the cells were about 90% confluent. The ˜90% confluent cells were then split 10:1 for maintenance or used for experiment.
# (§1) As 5-HT1A activation inhibits cAMP formation, the ability of test molecules to modulate 5-HT1A response was measured via changes in the levels of cAMP produced due to application of 4 μM forskolin. The change in intracellular cAMP levels due to the treatment of novel molecules was measured using cAMP-Glo Assay kit (Promega #V1501). […] Reduced ATP caused reduced conversion of luciferin to oxyluciferin, conferring diminished luminescence as the result of 5-HT1A activation. Conversely, enhanced luminescence was expected in cases where 5-HT1A receptor modulation—imparted by a test molecule—caused downstream increases in ATP, thus imparting enhanced conversion of luciferin to oxyluciferin.
# [1] = test system: CHO-K1/Gα15 (−5-HT1A) cells; experiment: cAMP-Glo assay in control −5-HT1A cells (CHO-K1/Gα15) with forskolin; format: cell-based; details: −5HT1A cell cultures; fixed (4 μM) forskolin; n=3; FIGS. 11L, 11M
# Text: CHO-K1/Gα15 (GenScript, M00257) (−5-HT1A) and CHO-K1/5-HT1A/Gα15 (GenScript, M00330) (+5-HT1A) cells lines were used. Briefly, CHO-K1/Gα15 is a control cell line that constitutively expresses Gα15 which is a promiscuous Gq protein. This control cell line lacks any transgene encoding 5-HT1A receptors, but still responds to forskolin; thus, cAMP response to forskolin should be the same regardless of whether or not 5-HT1A agonists are present. Conversely, CHO-K1/5-HT1A/Gα15 cells stably express 5-HT1A receptor in the CHO-K1 host background. […] In +5-HT1A cells, Gα15 may be recruited in place of Gαi/o, which could theoretically dampen cAMP response (Rojas and Fiedler 2016, Front Cell Neurosci 10: 272). […]
# as §1
# 5-HT2A receptor = target: T2, 5-HT2A receptor (Homo sapiens, UniProt P28223); experiment: [3H]ketanserin competition binding assay (Scintillation Proximity Assay); details: fixed (1 nM) [3H]ketanserin; membranes containing 5-HT2A; FIG. 11E
# T2 construct: purchased PerkinElmer ES-313-M400UA
# Text: Evaluation of drug binding is an essential step to characterization of all drug-target interactions (Fang 2012, Exp Opin Drug Discov 7:969). The binding affinity of a drug to a target is traditionally viewed as an acceptable surrogate of its in vivo efficacy (Núnez et al., 2012, Drug Disc Today 17: 10). Competition assays, also called displacement or modulation binding assays, are a common approach to measure activity of a ligand at a target receptor (Flanagan 2016, Methods Cell Biol 132: 191). In these assays, standard radioligands acting either as agonists or antagonists are ascribed to specific receptors. […] After incubation, the samples were read on a MicroBeta 2 Microplate Counter (Perkin Elmer). […] Equilibrium binding constants for ketanserin (Kd) were determined from saturation binding curves using the ‘one-site saturation binding analysis’ method of GraphPad PRISM software (Version 9.2.0). […] Ki values were calculated from the competition displacement data using the competitive binding analysis from GraphPad PRISM software. […] Specific binding in counts per minute (cpm) was calculated by subtracting non-specific binding from total binding. Specific binding (pmol/mg) was calculated from pmol of [^3H]ketanserin bound per mg of protein in the assay. The Kd was calculated by fitting the data with the one-site binding model of PRISM software (version 9.2.0).
# T2 sequence (P28223 whole entry): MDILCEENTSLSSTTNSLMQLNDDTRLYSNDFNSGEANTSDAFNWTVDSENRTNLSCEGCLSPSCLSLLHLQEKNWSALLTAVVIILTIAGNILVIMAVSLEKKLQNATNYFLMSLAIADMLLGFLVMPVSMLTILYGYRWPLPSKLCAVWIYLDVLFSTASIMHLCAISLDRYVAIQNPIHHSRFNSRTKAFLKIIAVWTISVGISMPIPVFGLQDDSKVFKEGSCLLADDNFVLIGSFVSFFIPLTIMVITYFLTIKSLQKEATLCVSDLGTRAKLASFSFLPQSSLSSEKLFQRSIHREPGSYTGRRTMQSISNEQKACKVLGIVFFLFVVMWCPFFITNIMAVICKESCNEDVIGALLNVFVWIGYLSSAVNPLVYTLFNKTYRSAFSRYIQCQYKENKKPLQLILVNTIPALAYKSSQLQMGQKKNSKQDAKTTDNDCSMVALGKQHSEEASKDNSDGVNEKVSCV
SMILES,"luminescence (cAMP) trend with decreasing ligand dosage, 5-HT1A modulation (5-HT1A receptor)",trend of increasing % cAMP levels with decreasing ligand dosage [1],"% cAMP levels with decreasing ligand dosage, 5-HT1A activity (5-HT1A receptor)",competition binding curve at the 5-HT2A receptor (5-HT2A receptor)
CN(C)CCc1c[nH]c2ccccc12 [DMT],5-HT1A activity,–,–,–
COc1c(N)ccc2[nH]cc(CCN)c12 [compound (IX)],–,not observed,5-HT1A binding activity,–
CN(C)CCc1c[nH]c2cccc(O)c12 [psilocin],–,–,–,binding
NCCc1c[nH]c2ccc(O)cc12 [serotonin],–,not observed,5-HT1A binding activity,–
N[C@@H](Cc1c[nH]c2ccccc12)C(=O)O [tryptophan],lack of 5-HT1A modulation,–,–,no binding

# Reference: patent US12378195B2, “Aminated psilocybin derivatives and methods of using” (Enveric Biosciences Canada Inc., priority 2021, dated 2025)
